The text below walks through data of ChEMBL document CHEMBL4483862, “Open-source discovery of chemical leads for next-generation chemoprotective antimalarials” (2018).

This assay deals with Plasmodium berghei. Briefly: Luciferase/luciferin-expressing antifolate-resistant parasites were used to infect a culture of HepG2 cells that were pre-incubated with compounds. Infected hepatocytes emit light due to the luciferase reaction. Assay results are presented as the percent inhibition of light emission compared to control. […]. The assay is classed as functional. As to conditions: sporozoite; for IC90: read-out: LUCIFERASE INFECTION ASSAY - IC90.

What is called IC50 is the concentration that gives 50% inhibition. Usually IC90 stands for the concentration needed for an effect of 90%. As for `c1csc(-c2cnc3sc(NCCc4ccncc4)nn23)c1`, the IC90 was greater than 10.1 µM. Moreover, the IC50 (FFLUC_HILL_SLOPE 0.665, FFLUC_R_SQUARED 0.0104, HEPG2TOX_HILL_SLOPE 4.1, HEPG2TOX_R_SQUARED 0.712, read-out: LUCIFERASE INFECTION ASSAY - IC50) was greater than 10.1 µM.

`O=C(Nc1ccc(OC(F)(F)F)cc1)Nc1cncc(C(F)(F)F)c1`: the IC90 was determined as 6.72 µM. In addition, the IC50 (FFLUC_HILL_SLOPE 0.707, FFLUC_R_SQUARED 0.204, PBLUC_HILL_SLOPE 4.06, PBLUC_R_SQUARED 0.292, read-out: LUCIFERASE INFECTION ASSAY - IC50) stood at 3.91 µM.

Turning to `COc1ccc(Oc2sccc2[N+](=O)[O-])cc1`, the IC90 was greater than 13.1 µM. The IC50 (FFLUC_HILL_SLOPE 0.766, FFLUC_R_SQUARED 0.0624, read-out: LUCIFERASE INFECTION ASSAY - IC50) was greater than 13.1 µM.

Turning to `COC(=O)c1c(C)[nH]c(C(=O)Nc2ccc(C)cn2)c1C`, the IC90 was found to be 2.63 µM. In addition, for the setting “FFLUC_HILL_SLOPE 0.774, FFLUC_R_SQUARED 0.984, PBLUC_HILL_SLOPE 0.487, PBLUC_R_SQUARED 0.641, read-out: LUCIFERASE INFECTION ASSAY - IC50”, the IC50 is 0.0288 µM.

On to `O=C(N/N=C/c1c(-c2ccccc2)nc2sc3c(n12)CCCC3)c1ccccc1`, for which the IC90 came to 0.858 µM. Besides, where the note is “FFLUC_HILL_SLOPE 0.805, FFLUC_R_SQUARED 0.757, PBLUC_HILL_SLOPE 1.27, PBLUC_R_SQUARED 0.855, read-out: LUCIFERASE INFECTION ASSAY - IC50”, the IC50 came to 0.153 µM.

Regarding `C(=N\Nc1ncnc2sc(-c3ccccc3)cc12)/c1sc(N2CCCCC2)nc1-c1cccs1`, the IC90 came out at 1.21 µM. In addition, the IC50 (FFLUC_HILL_SLOPE 0.658, FFLUC_R_SQUARED 0.126, HEPG2TOX_HILL_SLOPE 2.14, HEPG2TOX_R_SQUARED 0.958, PBLUC_HILL_SLOPE 24.1, PBLUC_R_SQUARED 0.279, read-out: LUCIFERASE INFECTION ASSAY - IC50) was found to be 1.11 µM.

As for `CSc1c(C#N)c(-c2cc(C(C)(C)C)oc2C)nn1-c1ccc(I)cc1`, the IC90 was greater than 6.91 µM. Further, the IC50 (FFLUC_HILL_SLOPE 0.81, FFLUC_R_SQUARED 0.431, read-out: LUCIFERASE INFECTION ASSAY - IC50) is greater than 6.91 µM.

With `NS(=O)(=O)c1ccc(Nc2nc(-c3cc(F)ccc3F)cs2)cc1`, the IC90 is greater than 10 µM. Further, for the setting “FFLUC_HILL_SLOPE 0.845, FFLUC_R_SQUARED 0.288, PBLUC_HILL_SLOPE 13.0, 1.97, PBLUC_R_SQUARED 0.591, 0.616, read-out: LUCIFERASE INFECTION ASSAY - IC50”, the IC50 turned out to be 8.85 µM.

For the molecule `O=C(Nc1ccc(-c2nc3ccccc3[nH]2)cc1)C1CCC1`, the IC90 is greater than 10 µM. Also, the IC50 (FFLUC_HILL_SLOPE 0.826, FFLUC_R_SQUARED 0.895, PBLUC_HILL_SLOPE 0.293, PBLUC_R_SQUARED 0.545, read-out: LUCIFERASE INFECTION ASSAY - IC50) is 0.543 µM.

With `Clc1c(-c2c(-c3ccccc3)[nH]c3ccccc23)nc2ccccc2c1-c1ccccc1`, the IC90 is 8.61 µM. In addition, the IC50 (FFLUC_HILL_SLOPE 0.689, FFLUC_R_SQUARED 0.515, HEPG2TOX_HILL_SLOPE 2.63, HEPG2TOX_R_SQUARED 0.531, PBLUC_HILL_SLOPE 2.99, PBLUC_R_SQUARED 0.588, read-out: LUCIFERASE INFECTION ASSAY - IC50) is 4.13 µM.

For the molecule `CC1=Nn2cc(-c3ccccc3)nc2SC1c1ccccc1` (stereo not drawn), the IC90 was determined as 1.79 µM. The IC50 (FFLUC_HILL_SLOPE 0.814, FFLUC_R_SQUARED 0.91, PBLUC_HILL_SLOPE 0.719, PBLUC_R_SQUARED 0.79, read-out: LUCIFERASE INFECTION ASSAY - IC50) was 0.084 µM.

As for `CCn1c(-c2ccccc2)c(C(=O)CSc2nnc(N)[nH]2)c2ccccc21`, the concentration for an effect of 90% (IC90) was greater than 10 µM. In addition, the IC50 (FFLUC_HILL_SLOPE 0.751, FFLUC_R_SQUARED 0.0256, read-out: LUCIFERASE INFECTION ASSAY - IC50) was greater than 10 µM.

With `CC(C)n1c(Sc2ncc([N+](=O)[O-])s2)nc2cc(C(F)(F)F)ccc21`, the IC90 was found to be 6.15 µM. The IC50 (FFLUC_HILL_SLOPE 0.818, FFLUC_R_SQUARED 0.623, HEPG2TOX_HILL_SLOPE 9.88, HEPG2TOX_R_SQUARED 0.799, PBLUC_HILL_SLOPE 37.4, PBLUC_R_SQUARED 0.0575, read-out: LUCIFERASE INFECTION ASSAY - IC50) amounted to 5.8 µM.

Turning to `CC(=O)c1c(C)[nH]c(C(=O)Nc2nc3ccccc3[nH]2)c1C`, the IC90 was greater than 10 µM. Besides, for the setting “FFLUC_HILL_SLOPE 0.837, FFLUC_R_SQUARED 0.9, PBLUC_HILL_SLOPE 0.352, PBLUC_R_SQUARED 0.709, read-out: LUCIFERASE INFECTION ASSAY - IC50”, the IC50 was 0.0695 µM.

As to `Cc1cc(C(=O)CSc2nnc3n2CCCCC3)c(C)n1-c1ccccc1`, the IC90 is greater than 10 µM. Besides, for the setting “FFLUC_HILL_SLOPE 0.849, FFLUC_R_SQUARED 0.0339, PBLUC_HILL_SLOPE 12.7, PBLUC_R_SQUARED 0.127, read-out: LUCIFERASE INFECTION ASSAY - IC50”, the half-maximal inhibitory concentration (IC50) amounted to 9.31 µM.

On to `Cc1c(C)n(CCCO)c2ncn3nc(COc4ccccc4)nc3c12`, for which the IC90 is 0.36 µM. In addition, the IC50 (FFLUC_HILL_SLOPE 0.782, FFLUC_R_SQUARED 0.957, PBLUC_HILL_SLOPE 0.808, PBLUC_R_SQUARED 0.882, read-out: LUCIFERASE INFECTION ASSAY - IC50) turned out to be 0.0238 µM.

For `Nc1ncnc(N/N=C/c2ccc(C3=CCCC3)s2)c1[N+](=O)[O-]`, the IC90 is greater than 10 µM. Also, the IC50 (FFLUC_HILL_SLOPE 0.804, FFLUC_R_SQUARED 0.918, PBLUC_HILL_SLOPE 0.696, PBLUC_R_SQUARED 0.659, read-out: LUCIFERASE INFECTION ASSAY - IC50) came out at 0.463 µM.

On to `Cc1ccc(C)c(-n2c(SC(C)c3nc(N)nc(N(C)C)n3)nc3ccccc3c2=O)c1` (stereo not drawn), for which the IC90 is greater than 10 µM. Where the note is “FFLUC_HILL_SLOPE 0.719, FFLUC_R_SQUARED 0.145, PBLUC_HILL_SLOPE 15.9, PBLUC_R_SQUARED 0.219, read-out: LUCIFERASE INFECTION ASSAY - IC50”, the IC50 amounted to 9.47 µM.

Regarding `C#Cc1cccc(NC(=O)c2ccc(C(C)(C)C)s2)c1`, the IC90 worked out at 8.24 µM. Moreover, the IC50 (FFLUC_HILL_SLOPE 0.741, FFLUC_R_SQUARED 0.211, PBLUC_HILL_SLOPE 2.38, PBLUC_R_SQUARED 0.594, read-out: LUCIFERASE INFECTION ASSAY - IC50) is 3.28 µM.

In the case of `CS(=O)(=O)c1ccccc1NC(=O)COC(=O)c1cccnc1N`, the IC90 was greater than 10 µM. Moreover, the IC50 (FFLUC_HILL_SLOPE 0.757, FFLUC_R_SQUARED 0.634, read-out: LUCIFERASE INFECTION ASSAY - IC50) is greater than 10 µM.

As for `Cc1c(OCC(=O)Nc2ccccc2)ccc2c1OC(C)(C)C=C2`, the IC90 came out at 0.79 µM. For the same molecule, for the setting “FFLUC_HILL_SLOPE 0.847, FFLUC_R_SQUARED 0.632, PBLUC_HILL_SLOPE 1.69, PBLUC_R_SQUARED 0.702, read-out: LUCIFERASE INFECTION ASSAY - IC50”, the IC50 amounted to 0.216 µM.

As for `O=C(NCCC1=CCCCC1)c1cccc(N2CCCC2=O)c1`, the IC90 was greater than 10 µM. For the same molecule, the IC50 (FFLUC_HILL_SLOPE 0.738, FFLUC_R_SQUARED 0.473, PBLUC_HILL_SLOPE 0.427, PBLUC_R_SQUARED 0.183, read-out: LUCIFERASE INFECTION ASSAY - IC50) was greater than 10 µM.

As to `COc1ccc(-c2cc(-c3ccc4ccccc4c3)n(C)c2-c2ccc(F)cc2)cc1`, the IC90 is greater than 8.1 µM. Further, under “FFLUC_HILL_SLOPE 0.642, FFLUC_R_SQUARED 0.523, PBLUC_HILL_SLOPE 1.6, PBLUC_R_SQUARED 0.413, read-out: LUCIFERASE INFECTION ASSAY - IC50”, the IC50 was found to be 2.69 µM.

As to `CCc1cn(Cc2ccccc2)c[n+]1Cc1ccccc1`, the IC90 is greater than 10.5 µM. The IC50 (FFLUC_HILL_SLOPE 0.817, FFLUC_R_SQUARED 0.751, PBLUC_HILL_SLOPE 3.02, PBLUC_R_SQUARED 0.429, read-out: LUCIFERASE INFECTION ASSAY - IC50) was 5.71 µM.

On to `O=C(Nc1cccc(S(=O)(=O)N2CCCCC2)c1)c1cn(-c2ccccc2C(F)(F)F)nn1`, for which the IC90 was greater than 10 µM. Moreover, under “FFLUC_HILL_SLOPE 0.647, FFLUC_R_SQUARED 0.258, read-out: LUCIFERASE INFECTION ASSAY - IC50”, the IC50 was greater than 10 µM.

As for `CC(C)OCCCn1c(S/C=C/c2ccc([N+](=O)[O-])o2)nc2ccccc2c1=O`, the IC90 is greater than 10 µM. Besides, the IC50 (FFLUC_HILL_SLOPE 0.75, FFLUC_R_SQUARED 0.0694, read-out: LUCIFERASE INFECTION ASSAY - IC50) was greater than 10 µM.

In the case of `COc1cc(/C=N/NC(=S)Nc2ccccc2OC)ccc1O`, the concentration for an effect of 90% (IC90) is greater than 9.96 µM. The IC50 (FFLUC_HILL_SLOPE 0.707, FFLUC_R_SQUARED 0.581, PBLUC_HILL_SLOPE 0.242, PBLUC_R_SQUARED 0.281, read-out: LUCIFERASE INFECTION ASSAY - IC50) was greater than 9.96 µM.

Turning to `N#Cc1nn(-c2cccc(Cl)c2)c(=O)cc1Cl`, the IC90 came out at 11.9 µM. The IC50 (FFLUC_HILL_SLOPE 0.646, FFLUC_R_SQUARED 0.469, HEPG2TOX_HILL_SLOPE 5.31, HEPG2TOX_R_SQUARED 0.933, PBLUC_HILL_SLOPE 9.19, PBLUC_R_SQUARED 0.334, read-out: LUCIFERASE INFECTION ASSAY - IC50) came to 9.36 µM.

As for `CCOC(=O)c1c(-c2ccccc2)oc2ccc(NS(=O)(=O)c3ccc(CC)cc3)cc12`, the IC90 was 9.53 µM. Also, the IC50 (FFLUC_HILL_SLOPE 0.825, FFLUC_R_SQUARED 0.206, HEPG2TOX_HILL_SLOPE 3.18, HEPG2TOX_R_SQUARED 0.941, PBLUC_HILL_SLOPE 22.5, PBLUC_R_SQUARED 0.586, read-out: LUCIFERASE INFECTION ASSAY - IC50) was found to be 8.65 µM.
